US20050222146A1, “N-substituted-n-sulfonylaminocyclopropane compounds and pharmaceutical use thereof” (priority 2003, published 2005)

Assays:
aggrecanase-1 = molecular target: T1, aggrecanase-1 (Homo sapiens, UniProt O75173); test: Aggrecanase-1 inhibitory action, Particle Assay (GAG release from aggrecan-containing polyacrylamide particles); format: biochemical; details: 37° C. for 15 hr, read-out: Experimental Example 1 IC50 AG1
T1 sequence (O75173 213-837): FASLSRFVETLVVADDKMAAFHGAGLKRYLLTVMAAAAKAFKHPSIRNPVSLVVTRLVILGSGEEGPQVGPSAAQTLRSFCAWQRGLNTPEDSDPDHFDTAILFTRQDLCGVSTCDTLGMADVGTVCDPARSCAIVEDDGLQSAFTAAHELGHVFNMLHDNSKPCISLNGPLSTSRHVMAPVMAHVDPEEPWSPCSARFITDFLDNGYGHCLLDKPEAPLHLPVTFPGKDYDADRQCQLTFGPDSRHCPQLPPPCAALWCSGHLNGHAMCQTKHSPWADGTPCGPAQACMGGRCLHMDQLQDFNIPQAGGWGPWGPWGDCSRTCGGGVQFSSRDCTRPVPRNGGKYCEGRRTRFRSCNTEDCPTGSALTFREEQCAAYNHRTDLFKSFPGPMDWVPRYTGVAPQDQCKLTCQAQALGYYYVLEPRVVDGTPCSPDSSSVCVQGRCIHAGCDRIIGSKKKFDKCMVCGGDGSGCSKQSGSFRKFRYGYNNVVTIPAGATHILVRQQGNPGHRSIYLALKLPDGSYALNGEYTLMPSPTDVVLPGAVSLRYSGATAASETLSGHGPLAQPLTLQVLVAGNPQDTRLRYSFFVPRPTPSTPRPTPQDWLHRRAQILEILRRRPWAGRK
In short: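 IC50 (μM) derived from % inhibition, referenced to enzyme-free and inhibitor-free wells, of GAG release read as 1,9-dimethylmethylene blue absorbance at 595 nm (chondroitin sulfate standard). Substrate: aggrecan-bearing polyacrylamide particles, exposed to enzyme plus compound in Tris-HCl for 15 hr at 37 °C.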

MMP-1 = molecular target: T2, MMP-1 (Homo sapiens, UniProt P03956); test: MMP-1 inhibitory action, Type I collagen Activity Measurement kit (FITC-labeled collagen type I); format: biochemical; details: 37° C. for 3 hr, read-out: Experimental Example 2 IC50 MMP1
T2 sequence (P03956 100-469): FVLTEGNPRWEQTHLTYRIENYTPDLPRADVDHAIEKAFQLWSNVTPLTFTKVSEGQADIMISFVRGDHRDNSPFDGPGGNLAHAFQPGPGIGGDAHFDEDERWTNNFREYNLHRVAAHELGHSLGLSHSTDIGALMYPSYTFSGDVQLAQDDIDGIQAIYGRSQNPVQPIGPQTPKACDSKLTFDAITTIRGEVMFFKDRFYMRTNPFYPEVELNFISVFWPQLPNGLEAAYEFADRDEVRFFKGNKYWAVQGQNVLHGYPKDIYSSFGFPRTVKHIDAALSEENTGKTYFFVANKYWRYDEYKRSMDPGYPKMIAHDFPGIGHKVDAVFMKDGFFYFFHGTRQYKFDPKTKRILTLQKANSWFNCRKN

O=C(O)c1cccc(CN([C@]2(C(=O)O)C[C@H]2c2cccc(NC(=O)c3cccnc3)c2)S(=O)(=O)c2ccc(-c3ccc(Cl)cc3)cc2)c1 (relative stereo) [Example 1-99, 3-{[((1R*, 2S*)-1-carboxy-2-{3-[(pyridin-3-carbonyl)-amino]-phenyl}-cyclopropyl)-(4′-chloro-biphenyl-4-sulfonyl)-amino]-methyl}-benzoic acid]
IC50 (aggrecanase-1): < 0.1 µM | IC50 (MMP-1): ≥ 10 µM

O=C(O)c1cccc(CN([C@]2(C(=O)O)C[C@H]2c2cccc(OCCN3CCCC3)c2)S(=O)(=O)c2ccc(-c3ccc(Cl)cc3)cc2)c1 (relative stereo) [Example 1-100, 3-{[{(1R*,2S*)-1-carboxy-2-[3-(2-pyrrolidin-1-yl-ethoxy)-phenyl]-cyclopropyl}-(4′-chloro-biphenyl-4-sulfonyl)-amino]-methyl}-benzoic acid]
IC50 (aggrecanase-1): < 1 µM | IC50 (MMP-1): ≥ 10 µM

O=C(O)c1cccc(CN([C@]2(C(=O)O)C[C@H]2c2cccc(OCCN3CCOCC3)c2)S(=O)(=O)c2ccc(-c3ccc(Cl)cc3)cc2)c1 (relative stereo) [Example 1-101, 3-{[{(1R*,2S*)-1-carboxy-2-[3-(2-morpholin-4-yl-ethoxy)-phenyl]-cyclopropyl}-(4′-chloro-biphenyl-4-sulfonyl)-amino]-methyl}-benzoic acid]
IC50 (aggrecanase-1): < 1 µM | IC50 (MMP-1): ≥ 10 µM

CNC(=O)c1cnn(CCN([C@]2(C(=O)O)C[C@H]2c2ccccc2)S(=O)(=O)c2ccc(-c3ccc(Cl)cc3)cc2)c1 (relative stereo) [Example 1-106, (1R*,2S*)—{(4′-chloro-biphenyl-4-sulfonyl)-[2-(4-methylcarbamoyl-pyrazol-1-yl)-ethyl]-amino}-2-phenyl-cyclopropanecarboxylic acid]
IC50 (aggrecanase-1): < 1 µM | IC50 (MMP-1): ≥ 1 µM

CC(C)(O)C(=O)NCCN([C@]1(C(=O)O)C[C@H]1c1ccccc1)S(=O)(=O)c1ccc(-c2ccc(Cl)cc2)cc1 (relative stereo) [Example 1-107, (1R*,2S*)-1-{(4′-chloro-biphenyl-4-sulfonyl)-[2-(2-hydroxy-2-methyl-propionylamino)-ethyl]-amino}-2-phenyl-cyclopropanecarboxylic acid]
IC50 (aggrecanase-1): < 1 µM | IC50 (MMP-1): ≥ 1 µM

O=C(O)c1cccc(CN([C@]2(C(=O)O)C[C@H]2c2cccc(OCCn3cccn3)c2)S(=O)(=O)c2ccc(-c3ccc(Cl)cc3)cc2)c1 (relative stereo) [Example 1-108, 3-{[{(1R*,2S*)-1-carboxy-2-[3-(2-pyrazol-1-yl-ethoxy)-phenyl]-cyclopropyl}-(4′-chloro-biphenyl-4-sulfonyl)-amino]-methyl}-benzoic acid]
IC50 (aggrecanase-1): < 1 µM | IC50 (MMP-1): ≥ 10 µM

O=C(O)[C@@]1(N(CCNc2nnn[nH]2)S(=O)(=O)c2ccc(-c3ccc(Cl)cc3)cc2)C[C@H]1c1cccc(Oc2ccccc2)c1 (relative stereo) [Example 1-109, (1R*,2S*)-1-{(4′-chloro-biphenyl-4-sulfonyl)-[2-(1H-tetrazol-5-ylamino)-ethyl]-amino}-2-(3-phenoxy-phenyl)-cyclopropanecarboxylic acid]
IC50 (aggrecanase-1): < 0.1 µM | IC50 (MMP-1): ≥ 10 µM

O=C(O)[C@@]1(N(CCCNc2nn[nH]n2)S(=O)(=O)c2ccc(-c3ccc(Cl)cc3)cc2)C[C@H]1c1ccccc1 (relative stereo) [Example 1-110, (1R*,2S*)-1-{(4′-chloro-biphenyl-4-sulfonyl)-[3-(2H-tetrazol-5-ylamino)-propyl]-amino}-2-phenyl-cyclopropanecarboxylic acid]
IC50 (aggrecanase-1): < 1 µM | IC50 (MMP-1): ≥ 10 µM

COC(=O)c1cn(CCN([C@]2(C(=O)O)C[C@H]2c2ccccc2)S(=O)(=O)c2ccc(-c3ccc(Cl)cc3)cc2)cn1 (relative stereo) [Example 1-112, 1-{2-[((1R*,2S*)-1-carboxy-2-phenyl-cyclopropyl)-(4′-chloro-biphenyl-4-sulfonyl)-amino]-ethyl}-1H-imidazole-4-carboxylic acid methyl ester]
IC50 (aggrecanase-1): < 1 µM | IC50 (MMP-1): ≥ 10 µM

CNC(=O)c1cn(CCN([C@]2(C(=O)O)C[C@H]2c2ccccc2)S(=O)(=O)c2ccc(-c3ccc(Cl)cc3)cc2)cn1 (relative stereo) [Example 1-113, (R*,2S*)-1-{(4′-chloro-biphenyl-4-sulfonyl)-[2-(4-methylcarbamoyl-imidazol-1-yl)-ethyl]-amino}-2-phenyl-cyclopropanecarboxylic acid]
IC50 (aggrecanase-1): < 0.1 µM | IC50 (MMP-1): ≥ 10 µM

O=C(O)[C@@]1(N(CCO)S(=O)(=O)c2ccc(-c3ccc(Cl)cc3)cc2)C[C@H]1c1cccc(Oc2ccccc2)c1 (relative stereo) [Example 1-114, (1R*,2S*)-1-[(4′-chloro-biphenyl-4-sulfonyl)-(2-hydroxy-ethyl)-amino]-2-(3-phenoxy-phenyl)-cyclopropanecarboxylic acid]
IC50 (aggrecanase-1): < 1 µM | IC50 (MMP-1): ≥ 10 µM

O=C(O)c1cccc(CN([C@]2(C(=O)O)C[C@H]2c2ccccc2)S(=O)(=O)N2CCN(c3ccc(Cl)cc3)CC2)c1 (relative stereo) [Example 1-115, 3-({((1R*,2S*)-1-carboxy-2-phenyl-cyclopropyl)-[4-(4-chloro-phenyl)-piperazine-1-sulfonyl]-amino}-methyl)-benzoic acid]
IC50 (aggrecanase-1): < 1 µM | IC50 (MMP-1): ≥ 10 µM

O=C(O)[C@]12[C@H](CCN1S(=O)(=O)c1ccc(-c3ccc(Cl)cc3)cc1)[C@H]2c1ccccc1 (relative stereo) [Example 2-02, (1R*, 5R*,6S*)-2-(4′-chlorobiphenyl-4-sulfonyl)-6-phenyl-2-aza-bicyclo[3.1.0]hexane-1-carboxylic acid]
IC50 (aggrecanase-1): ≥ 10 µM | IC50 (MMP-1): ≥ 10 µM

O=C(O)CN(C1(C(=O)O)C[C@H]1Cc1ccccc1)S(=O)(=O)c1ccc(-c2ccc(Cl)cc2)cc1 (stereo in doubt) [Example 1-3, (1S,2R)-2-benzyl-1-[carboxymethyl-(4′-chloro-biphenyl-4-sulfonyl)-amino]-cyclopropanecarboxylic acid]
IC50 (aggrecanase-1): < 1 µM | IC50 (MMP-1): ≥ 10 µM

COc1cccc([C@@H]2CC2(C(=O)O)N(CC(=O)O)S(=O)(=O)c2ccc(-c3ccc(Cl)cc3)cc2)c1 (stereo in doubt) [Example 1-21, (1R*,2S)-1-[carboxymethyl-(4′-chloro-biphenyl-4-sulfonyl)-amino]-2-(3-methoxy-phenyl)-cyclopropanecarboxylic acid]
IC50 (aggrecanase-1): < 1 µM | IC50 (MMP-1): ≥ 10 µM

NC(=O)CN(C1(C(=O)O)C[C@H]1c1ccccc1)S(=O)(=O)c1ccc(-c2ccc(Cl)cc2)cc1 (stereo in doubt) [Example 1-36, (1R*,2S)-1-[carbamoylmethyl-(4′-chloro-biphenyl-4-sulfonyl)-amino]-2-phenyl-cyclopropanecarboxylic acid]
IC50 (aggrecanase-1): < 1 µM | IC50 (MMP-1): ≥ 10 µM

O=C(O)CN([C@]1(C(=O)O)C[C@H]1c1ccccc1)S(=O)(=O)c1ccc(-c2ccc(Cl)cc2)cc1 [Example 1-2, (1R,2S)-1-[carboxymethyl-(4′-chloro-biphenyl-4-sulfonyl)-amino]-2-phenyl-cyclopropanecarboxylic acid]
IC50 (aggrecanase-1): < 0.1 µM | IC50 (MMP-1): ≥ 10 µM

O=C(O)CN(C1(C(=O)O)CC1c1cccc(OCc2ccccc2)c1)S(=O)(=O)c1ccc(-c2ccc(Cl)cc2)cc1 (stereo not drawn) [Example 1-50]
IC50 (aggrecanase-1): < 1 µM | IC50 (MMP-1): ≥ 1 µM

O=C(O)C1(N(Cc2noc(=O)[nH]2)S(=O)(=O)c2ccc(-c3ccc(Cl)cc3)cc2)CC1c1ccccc1 (stereo not drawn) [Example 1-64, (R*,2S*)-1-[(4′-chlorobiphenyl-4-sulfonyl)-(5-oxo-4,5-dihydro[1.2.4]oxadiazol-3-ylmethyl)-amino]-2-phenylcyclopropanecarboxylic acid]
IC50 (aggrecanase-1): < 0.1 µM | IC50 (MMP-1): ≥ 10 µM

O=C(O)c1cnn(CCN(C2(C(=O)O)CC2c2ccccc2)S(=O)(=O)c2ccc(-c3ccc(Cl)cc3)cc2)c1 (stereo not drawn) [Example 1-79, 1-{2-[(1R*,2S*)-1-carboxy-2-phenyl-cyclopropyl)-(4′-chloro-biphenyl-4-sulfonyl)-amino]-ethyl}-1H-pyrazol-4-carboxylic acid]
IC50 (aggrecanase-1): < 0.1 µM | IC50 (MMP-1): ≥ 10 µM

O=C(O)c1cc(CN(C2(C(=O)O)CC2c2ccccc2)S(=O)(=O)c2ccc(-c3ccc(Cl)cc3)cc2)on1 [Example 1-82, 5-{[((R, 2S*-1-carboxy-2-phenyl-cyclopropyl)-(4′-chloro-biphenyl-4-sulfonyl)-amino]-methyl}-isooxazole-3-carboxylic acid]
IC50 (aggrecanase-1): < 1 µM | IC50 (MMP-1): ≥ 10 µM
